test system: Kuramochi; test: drug sensitivity score (DSS) from 5-point dose-response viability curve (DSS (area-under-curve based score)); higher = more sensitive (stronger growth inhibition or killing); extreme values may be limits of the assay; details: exposure time: 72 h; concentration range: 5 concentrations over 10,000-fold range
Method in brief: (§1)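 Each cell line and drug received a drug sensitivity score from Breeze software, where higher means more sensitive. Zero stands for no response. Scores came from CellTiter-Glo viability readings of ovarian cancer and normal ovarian cells, 1,500 per well in 384-well plates, after 3 days at 37°C, 5% CO2 with drugs at five concentrations over a 10,000-fold range.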

Compound | drug sensitivity score
CC(C)(C)C[C@@H]1N[C@@H](C(=O)N[C@H]2CC[C@H](O)CC2)[C@H](c2cccc(Cl)c2F)[C@]12C(=O)Nc1cc(Cl)ccc12 | 1.5
CC(C)Oc1ccc(C(=O)N[C@H](CNC(=O)CN(C)C)Cc2ccc(-c3cn4cccc([C@H](C)O)c4n3)cc2)cc1Cl | 9
CC[C@@H]1[C@H](F)C(=O)N[C@@H]1COc1nccc2cc(C(N)=O)c(OC)cc12 | 1.8
CCc1cncnc1N1CCN(Cc2nc3ccc(C(F)(F)F)cc3[nH]2)CC1 | 1.1
CCn1c(-c2nonc2N)nc2cnc(Oc3cccc(NC(=O)c4ccc(OCCN5CCOCC5)cc4)c3)cc21 | 2.1
CN(C)CC#Cc1ccc(OCCCc2sc(N3CCc4cccc(C(=O)Nc5nc6ccccc6s5)c4C3)nc2C(=O)O)c(F)c1 | 1.6
CN(c1ncccc1CNc1nc(Nc2ccc3c(c2)CC(=O)N3)ncc1C(F)(F)F)S(C)(=O)=O | 5.5
CNC(=O)c1ccc(C)c(-n2c(C)cc(OCc3ccc(F)cc3F)c(Br)c2=O)c1 | 0.7
CNS(=O)(=O)Nc1nccc(Cc2c(C)c3ccc(Oc4ncccn4)cc3oc2=O)c1F | 0
CNc1ncc2cc(-c3cc(NC(=O)NCCC(C)(C)C)c(F)cc3C)c(C)nc2n1 | 8.7
CO[C@@H](C)Cn1c(=O)n(C)c2cnc3ccc(-c4cncc(C(C)(C)O)c4)cc3c21 | 8.3
COc1ccc(Cn2ccc3ccc(C(=O)NO)cc32)cc1 | 1.2
C[C@@H](Oc1ccc2[nH]nc(/C=C/c3cnn(CCO)c3)c2c1)c1c(Cl)cncc1Cl | 1.8
C[C@@H]1CN(CC(=O)Nc2ccc3c(c2)Cc2cccc(-c4cc(=O)cc(N5CCOCC5)o4)c2S3)C[C@H](C)O1 | 0.5
C[C@H]1C[C@@H](n2c(Nc3ccc(OC(F)(F)F)cc3)nc3cc(CCC(=O)O)ccc32)CC(C)(C)C1 | 0
Cc1c(-c2c(-c3ccc(F)o3)sc3ncnc(O[C@H](Cc4ccccc4OCc4ccnn4CC(F)(F)F)C(=O)O)c23)ccc(OCCN2CCN(C)CC2)c1Cl | 0

Compound | drug sensitivity score
Cc1c(Cn2c(C)nc3c(C(=O)O)cc(N4CCOCC4)cc32)cccc1C(F)(F)F | 3.7
Cc1ccc(C(=O)N(CCCN)[C@@H](c2oc3cc(Cl)ccc3c(=O)c2Cc2ccccc2)C(C)C)cc1 | 2.9
Cc1cccc(CC(=O)N2CCc3c2ccc(-c2cn(C)c4ncnc(N)c24)c3F)n1 | 0.2
Cc1nc(Nc2n[nH]c3c2CN(C(=O)N[C@H](CN(C)C)c2ccccc2)C3(C)C)c2sccc2n1 | 12.2
Cc1ncc(Cl)cc1NCc1ccc(C(=O)N[C@@H](CC2CCCC2)C(=O)NC2CC2)s1 | 0.4
Cn1cc(-c2ccc(F)c(C(F)(F)F)c2)nc1C1CCN(c2ncnc3[nH]ncc23)CC1 | 0
Cn1cc(C2=Nc3cc(NC(=O)C(N)C4CCCCC4)cc4c3C2=CNNC4=O)cn1 (stereo unspecified) | 7.3
N#Cc1ccc(COC[C@H]2O[C@@H](n3c(NCc4ccc(Cl)c(Cl)c4)nc4c(N)ncnc43)[C@H](O)[C@@H]2O)cc1 | 1.4
NCC(=O)Nc1ccc(-n2nc(C(F)(F)F)cc2-c2ccc3c(ccc4ccccc43)c2)cc1 | 1.4
NC[C@@](O)(c1ccc(Cl)cc1)c1ccc(-c2cn[nH]c2)cc1 | 0.1
Nc1nccc(-c2c(-c3ccc(F)cc3)ncn2C2CCCCC2)n1 | 0.1
Nc1ncnc2c1c(COc1cccc(Cl)c1)nn2C1CCOCC1 | 0.3
O=C(NOC[C@H](O)CO)c1ccc(F)c(F)c1Nc1ccc(I)cc1F | 5.2
O=C(Nc1ccc2[nH]nc(-c3ccncc3)c2c1)[C@@H]1CCN(CC(=O)N2CCN(c3ccc(-c4ncccn4)cc3)CC2)C1 | 13.2
O=C(O)c1ccc(-c2c[nH]c3ncc(-c4ccccc4)cc23)cc1C1CCCC1 | 0
O=C(O)c1ccc(CN2CCC(CN[C@@H]3C[C@H]3c3ccccc3)CC2)cc1 | 0

test system: OVCAR8; test: as above; details: exposure time: 72 h; concentration range: 5 concentrations over 10,000-fold range
Method in brief: as §1

Compound | drug sensitivity score
CC(C)(C)C[C@@H]1N[C@@H](C(=O)N[C@H]2CC[C@H](O)CC2)[C@H](c2cccc(Cl)c2F)[C@]12C(=O)Nc1cc(Cl)ccc12 | 0.4
CC(C)Oc1ccc(C(=O)N[C@H](CNC(=O)CN(C)C)Cc2ccc(-c3cn4cccc([C@H](C)O)c4n3)cc2)cc1Cl | 14
CC[C@@H]1[C@H](F)C(=O)N[C@@H]1COc1nccc2cc(C(N)=O)c(OC)cc12 | 0.7
CCc1cncnc1N1CCN(Cc2nc3ccc(C(F)(F)F)cc3[nH]2)CC1 | 3.1
CCn1c(-c2nonc2N)nc2cnc(Oc3cccc(NC(=O)c4ccc(OCCN5CCOCC5)cc4)c3)cc21 | 4.4
CN(C)CC#Cc1ccc(OCCCc2sc(N3CCc4cccc(C(=O)Nc5nc6ccccc6s5)c4C3)nc2C(=O)O)c(F)c1 | 0
CN(c1ncccc1CNc1nc(Nc2ccc3c(c2)CC(=O)N3)ncc1C(F)(F)F)S(C)(=O)=O | 4.3
CNC(=O)c1ccc(C)c(-n2c(C)cc(OCc3ccc(F)cc3F)c(Br)c2=O)c1 | 0
CNS(=O)(=O)Nc1nccc(Cc2c(C)c3ccc(Oc4ncccn4)cc3oc2=O)c1F | 0
CNc1ncc2cc(-c3cc(NC(=O)NCCC(C)(C)C)c(F)cc3C)c(C)nc2n1 | 9.9
CO[C@@H](C)Cn1c(=O)n(C)c2cnc3ccc(-c4cncc(C(C)(C)O)c4)cc3c21 | 9.5
COc1ccc(Cn2ccc3ccc(C(=O)NO)cc32)cc1 | 3.7
C[C@@H](Oc1ccc2[nH]nc(/C=C/c3cnn(CCO)c3)c2c1)c1c(Cl)cncc1Cl | 3.4
C[C@@H]1CN(CC(=O)Nc2ccc3c(c2)Cc2cccc(-c4cc(=O)cc(N5CCOCC5)o4)c2S3)C[C@H](C)O1 | 1.9
C[C@H]1C[C@@H](n2c(Nc3ccc(OC(F)(F)F)cc3)nc3cc(CCC(=O)O)ccc32)CC(C)(C)C1 | 0.1
Cc1c(-c2c(-c3ccc(F)o3)sc3ncnc(O[C@H](Cc4ccccc4OCc4ccnn4CC(F)(F)F)C(=O)O)c23)ccc(OCCN2CCN(C)CC2)c1Cl | 0

Compound | drug sensitivity score
Cc1c(Cn2c(C)nc3c(C(=O)O)cc(N4CCOCC4)cc32)cccc1C(F)(F)F | 0
Cc1ccc(C(=O)N(CCCN)[C@@H](c2oc3cc(Cl)ccc3c(=O)c2Cc2ccccc2)C(C)C)cc1 | 2.9
Cc1cccc(CC(=O)N2CCc3c2ccc(-c2cn(C)c4ncnc(N)c24)c3F)n1 | 1.5
Cc1nc(Nc2n[nH]c3c2CN(C(=O)N[C@H](CN(C)C)c2ccccc2)C3(C)C)c2sccc2n1 | 16.5
Cc1ncc(Cl)cc1NCc1ccc(C(=O)N[C@@H](CC2CCCC2)C(=O)NC2CC2)s1 | 0
Cn1cc(-c2ccc(F)c(C(F)(F)F)c2)nc1C1CCN(c2ncnc3[nH]ncc23)CC1 | 0.1
Cn1cc(C2=Nc3cc(NC(=O)C(N)C4CCCCC4)cc4c3C2=CNNC4=O)cn1 (stereo unspecified) | 14.7
N#Cc1ccc(COC[C@H]2O[C@@H](n3c(NCc4ccc(Cl)c(Cl)c4)nc4c(N)ncnc43)[C@H](O)[C@@H]2O)cc1 | 5.5
NCC(=O)Nc1ccc(-n2nc(C(F)(F)F)cc2-c2ccc3c(ccc4ccccc43)c2)cc1 | 2.7
NC[C@@](O)(c1ccc(Cl)cc1)c1ccc(-c2cn[nH]c2)cc1 | 1.1
Nc1nccc(-c2c(-c3ccc(F)cc3)ncn2C2CCCCC2)n1 | 0.7
Nc1ncnc2c1c(COc1cccc(Cl)c1)nn2C1CCOCC1 | 0
O=C(NOC[C@H](O)CO)c1ccc(F)c(F)c1Nc1ccc(I)cc1F | 1.7
O=C(Nc1ccc2[nH]nc(-c3ccncc3)c2c1)[C@@H]1CCN(CC(=O)N2CCN(c3ccc(-c4ncccn4)cc3)CC2)C1 | 6.7
O=C(O)c1ccc(-c2c[nH]c3ncc(-c4ccccc4)cc23)cc1C1CCCC1 | 0.3
O=C(O)c1ccc(CN2CCC(CN[C@@H]3C[C@H]3c3ccccc3)CC2)cc1 | 0

test system: CAOV3; test: as above; details: exposure time: 72 h; concentration range: 5 concentrations over 10,000-fold range
Method in brief: as §1

Compound | drug sensitivity score
CC(C)(C)C[C@@H]1N[C@@H](C(=O)N[C@H]2CC[C@H](O)CC2)[C@H](c2cccc(Cl)c2F)[C@]12C(=O)Nc1cc(Cl)ccc12 | 0
CC(C)Oc1ccc(C(=O)N[C@H](CNC(=O)CN(C)C)Cc2ccc(-c3cn4cccc([C@H](C)O)c4n3)cc2)cc1Cl | 17.5
CC[C@@H]1[C@H](F)C(=O)N[C@@H]1COc1nccc2cc(C(N)=O)c(OC)cc12 | 0.9
CCc1cncnc1N1CCN(Cc2nc3ccc(C(F)(F)F)cc3[nH]2)CC1 | 0.9
CCn1c(-c2nonc2N)nc2cnc(Oc3cccc(NC(=O)c4ccc(OCCN5CCOCC5)cc4)c3)cc21 | 1.6
CN(C)CC#Cc1ccc(OCCCc2sc(N3CCc4cccc(C(=O)Nc5nc6ccccc6s5)c4C3)nc2C(=O)O)c(F)c1 | 7.5
CN(c1ncccc1CNc1nc(Nc2ccc3c(c2)CC(=O)N3)ncc1C(F)(F)F)S(C)(=O)=O | 7.4
CNC(=O)c1ccc(C)c(-n2c(C)cc(OCc3ccc(F)cc3F)c(Br)c2=O)c1 | 0
CNS(=O)(=O)Nc1nccc(Cc2c(C)c3ccc(Oc4ncccn4)cc3oc2=O)c1F | 3.3
CNc1ncc2cc(-c3cc(NC(=O)NCCC(C)(C)C)c(F)cc3C)c(C)nc2n1 | 7.9
CO[C@@H](C)Cn1c(=O)n(C)c2cnc3ccc(-c4cncc(C(C)(C)O)c4)cc3c21 | 9.2
COc1ccc(Cn2ccc3ccc(C(=O)NO)cc32)cc1 | 1.1
C[C@@H](Oc1ccc2[nH]nc(/C=C/c3cnn(CCO)c3)c2c1)c1c(Cl)cncc1Cl | 6.9
C[C@@H]1CN(CC(=O)Nc2ccc3c(c2)Cc2cccc(-c4cc(=O)cc(N5CCOCC5)o4)c2S3)C[C@H](C)O1 | 1.1
C[C@H]1C[C@@H](n2c(Nc3ccc(OC(F)(F)F)cc3)nc3cc(CCC(=O)O)ccc32)CC(C)(C)C1 | 0
Cc1c(-c2c(-c3ccc(F)o3)sc3ncnc(O[C@H](Cc4ccccc4OCc4ccnn4CC(F)(F)F)C(=O)O)c23)ccc(OCCN2CCN(C)CC2)c1Cl | 0

Compound | drug sensitivity score
Cc1c(Cn2c(C)nc3c(C(=O)O)cc(N4CCOCC4)cc32)cccc1C(F)(F)F | 0
Cc1ccc(C(=O)N(CCCN)[C@@H](c2oc3cc(Cl)ccc3c(=O)c2Cc2ccccc2)C(C)C)cc1 | 5.8
Cc1cccc(CC(=O)N2CCc3c2ccc(-c2cn(C)c4ncnc(N)c24)c3F)n1 | 0.4
Cc1nc(Nc2n[nH]c3c2CN(C(=O)N[C@H](CN(C)C)c2ccccc2)C3(C)C)c2sccc2n1 | 17.5
Cc1ncc(Cl)cc1NCc1ccc(C(=O)N[C@@H](CC2CCCC2)C(=O)NC2CC2)s1 | 0
Cn1cc(-c2ccc(F)c(C(F)(F)F)c2)nc1C1CCN(c2ncnc3[nH]ncc23)CC1 | 0
Cn1cc(C2=Nc3cc(NC(=O)C(N)C4CCCCC4)cc4c3C2=CNNC4=O)cn1 (stereo unspecified) | 11
N#Cc1ccc(COC[C@H]2O[C@@H](n3c(NCc4ccc(Cl)c(Cl)c4)nc4c(N)ncnc43)[C@H](O)[C@@H]2O)cc1 | 3.8
NCC(=O)Nc1ccc(-n2nc(C(F)(F)F)cc2-c2ccc3c(ccc4ccccc43)c2)cc1 | 1
NC[C@@](O)(c1ccc(Cl)cc1)c1ccc(-c2cn[nH]c2)cc1 | 0.5
Nc1nccc(-c2c(-c3ccc(F)cc3)ncn2C2CCCCC2)n1 | 1.7
Nc1ncnc2c1c(COc1cccc(Cl)c1)nn2C1CCOCC1 | 0
O=C(NOC[C@H](O)CO)c1ccc(F)c(F)c1Nc1ccc(I)cc1F | 11.7
O=C(Nc1ccc2[nH]nc(-c3ccncc3)c2c1)[C@@H]1CCN(CC(=O)N2CCN(c3ccc(-c4ncccn4)cc3)CC2)C1 | 12.2
O=C(O)c1ccc(-c2c[nH]c3ncc(-c4ccccc4)cc23)cc1C1CCCC1 | 2.3
O=C(O)c1ccc(CN2CCC(CN[C@@H]3C[C@H]3c3ccccc3)CC2)cc1 | 0
